According to ChEMBL document CHEMBL2074275, “Characterization of inducible nature of MRP3 in rat liver” (Am J Physiol Gastrointest Liver Physiol, 2000):

What was measured:
Assay type in all cases: functional, organism-based, Sprague-Dawley
[1] = target: T1, ATP-binding cassette sub-family C member 3 (Rattus norvegicus, UniProt O88563); test: TP_TRANSPORTER: Western in vivo SD rat, liver
[2] = target: ATP-binding cassette sub-family C member 6 (Rattus norvegicus, UniProt O88269); test: (§1) TP_TRANSPORTER: Northern blot in vivo SD rat, liver
Chain of ATP-binding cassette sub-family C member 6 (O88269 whole entry): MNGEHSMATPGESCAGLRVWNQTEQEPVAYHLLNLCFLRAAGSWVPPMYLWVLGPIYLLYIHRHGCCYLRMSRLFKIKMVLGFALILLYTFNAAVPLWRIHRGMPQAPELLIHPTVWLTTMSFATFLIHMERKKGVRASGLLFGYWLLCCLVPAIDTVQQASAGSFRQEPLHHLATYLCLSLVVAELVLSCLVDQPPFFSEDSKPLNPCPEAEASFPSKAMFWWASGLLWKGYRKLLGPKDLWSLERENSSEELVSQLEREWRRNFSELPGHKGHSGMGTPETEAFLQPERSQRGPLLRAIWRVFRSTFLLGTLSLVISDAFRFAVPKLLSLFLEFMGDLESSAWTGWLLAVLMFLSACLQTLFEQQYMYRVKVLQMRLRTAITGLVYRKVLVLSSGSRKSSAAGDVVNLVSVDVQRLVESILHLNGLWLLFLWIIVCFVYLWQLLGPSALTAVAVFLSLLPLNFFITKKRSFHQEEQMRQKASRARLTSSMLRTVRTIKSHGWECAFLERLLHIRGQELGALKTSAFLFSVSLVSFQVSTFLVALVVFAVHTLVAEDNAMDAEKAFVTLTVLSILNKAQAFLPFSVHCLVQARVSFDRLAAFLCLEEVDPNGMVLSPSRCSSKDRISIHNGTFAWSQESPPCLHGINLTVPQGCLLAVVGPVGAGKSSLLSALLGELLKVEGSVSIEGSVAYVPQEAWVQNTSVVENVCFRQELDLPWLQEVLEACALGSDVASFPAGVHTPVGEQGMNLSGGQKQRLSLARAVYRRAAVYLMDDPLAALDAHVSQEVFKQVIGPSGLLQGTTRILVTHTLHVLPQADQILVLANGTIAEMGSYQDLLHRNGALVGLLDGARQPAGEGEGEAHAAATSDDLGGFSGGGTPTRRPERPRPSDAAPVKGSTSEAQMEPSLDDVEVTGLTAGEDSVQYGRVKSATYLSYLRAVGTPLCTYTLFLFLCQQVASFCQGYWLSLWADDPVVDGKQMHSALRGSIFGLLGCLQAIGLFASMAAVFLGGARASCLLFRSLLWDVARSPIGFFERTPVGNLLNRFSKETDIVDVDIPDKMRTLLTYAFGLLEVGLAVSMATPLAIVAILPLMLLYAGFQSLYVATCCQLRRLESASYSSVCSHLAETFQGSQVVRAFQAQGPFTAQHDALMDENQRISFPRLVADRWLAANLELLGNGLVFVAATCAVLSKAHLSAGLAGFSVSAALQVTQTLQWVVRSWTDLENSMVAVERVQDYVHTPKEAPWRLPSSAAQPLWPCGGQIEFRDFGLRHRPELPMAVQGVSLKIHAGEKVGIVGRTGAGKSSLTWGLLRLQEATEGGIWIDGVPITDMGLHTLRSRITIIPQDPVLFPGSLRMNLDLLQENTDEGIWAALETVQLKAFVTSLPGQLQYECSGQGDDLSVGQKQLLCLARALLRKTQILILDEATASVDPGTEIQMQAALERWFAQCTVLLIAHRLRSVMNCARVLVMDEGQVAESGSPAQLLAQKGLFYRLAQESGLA

[3] = target: T2, Hepatic sodium/bile acid cotransporter (Rattus norvegicus, UniProt P26435); test: as §1
T2 sequence (P26435 whole entry): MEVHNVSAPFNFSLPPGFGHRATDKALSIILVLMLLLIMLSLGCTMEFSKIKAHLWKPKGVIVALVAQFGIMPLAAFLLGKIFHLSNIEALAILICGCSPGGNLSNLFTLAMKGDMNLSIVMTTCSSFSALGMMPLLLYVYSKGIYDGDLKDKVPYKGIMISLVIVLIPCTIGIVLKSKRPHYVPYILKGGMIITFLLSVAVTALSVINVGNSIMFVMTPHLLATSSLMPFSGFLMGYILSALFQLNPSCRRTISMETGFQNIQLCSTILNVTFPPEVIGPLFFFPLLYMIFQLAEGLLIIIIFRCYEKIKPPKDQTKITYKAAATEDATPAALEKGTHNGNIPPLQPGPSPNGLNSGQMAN

[4] = target: T1, ATP-binding cassette sub-family C member 3; test: as §1

Measured: Activity

T1 sequence (O88563 whole entry): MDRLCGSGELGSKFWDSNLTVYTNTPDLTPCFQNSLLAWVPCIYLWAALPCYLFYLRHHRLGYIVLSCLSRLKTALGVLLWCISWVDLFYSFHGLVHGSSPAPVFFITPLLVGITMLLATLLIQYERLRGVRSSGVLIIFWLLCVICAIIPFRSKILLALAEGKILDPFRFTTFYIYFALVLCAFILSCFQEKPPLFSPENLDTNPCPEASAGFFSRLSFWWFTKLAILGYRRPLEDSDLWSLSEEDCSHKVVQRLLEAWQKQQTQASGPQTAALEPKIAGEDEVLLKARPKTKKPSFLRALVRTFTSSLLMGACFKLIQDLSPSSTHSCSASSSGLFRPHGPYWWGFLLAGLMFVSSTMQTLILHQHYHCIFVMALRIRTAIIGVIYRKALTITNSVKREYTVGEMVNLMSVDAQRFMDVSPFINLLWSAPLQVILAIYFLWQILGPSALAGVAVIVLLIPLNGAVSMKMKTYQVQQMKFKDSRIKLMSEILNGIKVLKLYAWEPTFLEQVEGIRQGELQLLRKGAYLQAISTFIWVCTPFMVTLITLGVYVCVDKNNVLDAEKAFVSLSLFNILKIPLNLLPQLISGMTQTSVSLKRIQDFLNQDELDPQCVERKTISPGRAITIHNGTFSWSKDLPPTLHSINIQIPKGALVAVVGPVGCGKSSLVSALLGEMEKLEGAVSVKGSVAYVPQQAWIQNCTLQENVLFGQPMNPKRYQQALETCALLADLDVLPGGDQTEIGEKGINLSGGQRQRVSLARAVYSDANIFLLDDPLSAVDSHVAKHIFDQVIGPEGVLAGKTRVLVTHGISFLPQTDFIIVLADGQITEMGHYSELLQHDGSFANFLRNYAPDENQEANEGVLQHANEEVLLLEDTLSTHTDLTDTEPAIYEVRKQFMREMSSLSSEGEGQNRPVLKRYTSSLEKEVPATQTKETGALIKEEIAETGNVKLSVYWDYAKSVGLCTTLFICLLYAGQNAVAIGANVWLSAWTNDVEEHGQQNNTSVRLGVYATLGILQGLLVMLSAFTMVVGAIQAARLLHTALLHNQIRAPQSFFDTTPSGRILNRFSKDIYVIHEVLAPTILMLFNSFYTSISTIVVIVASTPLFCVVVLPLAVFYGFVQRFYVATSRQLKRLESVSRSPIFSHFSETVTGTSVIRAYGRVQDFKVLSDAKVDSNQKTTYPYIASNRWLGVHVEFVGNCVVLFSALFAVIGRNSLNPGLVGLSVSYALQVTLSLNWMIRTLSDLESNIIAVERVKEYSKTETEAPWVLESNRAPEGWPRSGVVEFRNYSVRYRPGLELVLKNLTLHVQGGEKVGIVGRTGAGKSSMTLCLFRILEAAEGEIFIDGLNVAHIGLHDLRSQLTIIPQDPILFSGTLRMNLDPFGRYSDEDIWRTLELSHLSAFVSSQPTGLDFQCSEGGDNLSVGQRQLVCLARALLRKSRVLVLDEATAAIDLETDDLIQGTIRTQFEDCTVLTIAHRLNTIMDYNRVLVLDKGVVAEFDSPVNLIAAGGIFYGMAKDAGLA

CCC1(c2ccccc2)C(=O)NC(=O)NC1=O [PHENOBARBITAL]
inducer [+]: all assays above

O=C=Nc1cccc2ccccc12 [alpha-naphthylisocyanate]
inducer [+]: all assays above
